Measurements from patent US4113944A, “Cephalosporin-type antibiotics and process for producing the same” (Meiji Seika Kaisha, Ltd., priority 1974, dated 1978).
Values after ≈ are worked out from the molar mass of the structure shown. Read-outs that look alike come from different tables or passages of the source.

Tests used:
[1] = acute toxicity in mice (LD50); conditions: mouse, in vivo
[2] = tested on: Escherichia coli; assay: Minimum Inhibitory Concentration (antimicrobial activity), Escherichia coli; type: cell-based
[3] = tested on: Salmonella typhi W-901-10; assay: ED50 in mice suffering from infectious disease, Salmonella typhi W-901-10; type: in vivo; conditions: Salmonella enterica, iv
Description: (§1) The ED50 values of the above obtained compounds were determined by intravenously administering the compounds to mice suffering from infectious diseases caused by various bacteria and were compared with those obtained using known antibiotics.

[4] = tested on: Salmonella enteritidis No.11; assay: ED50 in mice suffering from infectious disease, Salmonella enteritidis No.11; type: in vivo; conditions: Salmonella enterica
Description: as §1

[5] = tested on: Staphylococcus aureus Smith S-424; assay: ED50 in mice suffering from infectious disease, Staphylococcus aureus Smith S-424; type: in vivo
Description: as §1

[6] = tested on: Proteus vulgaris; assay: Minimum Inhibitory Concentration (antimicrobial activity), Proteus vulgaris; type: cell-based; conditions: read-out: Minimum Inhibitory Concentration (MIC)
[7] = tested on: Salmonella; assay: Minimum Inhibitory Concentration (antimicrobial activity), Salmonella; type: cell-based
[8] = tested on: Proteus vulgaris C-73-9; assay: ED50 in mice suffering from infectious disease, Proteus vulgaris C-73-9; type: in vivo
Description: as §1

[9] = tested on: Kurebusiera pneumonia; assay: Minimum Inhibitory Concentration (antimicrobial activity), Kurebusiera pneumonia; type: cell-based
[10] = tested on: Staphylococcus aureaus; assay: Minimum Inhibitory Concentration (antimicrobial activity), Staphylococcus aureus; type: cell-based
[11] = tested on: Pseudomonas aeruginose; assay: Minimum Inhibitory Concentration (antimicrobial activity), Pseudomonas; type: cell-based
[12] = acute toxicity, mice, Example 1 as disodium salt, read-out: LD50
[13] = Salmonella enteritidis No.11, intravenous, mice, Example 1 as disodium salt, read-out: ED50
[14] = C739, Proteus vulgaris C-73-9 (strains produced from Cephalosporinase), intravenous, mice, Example 1 as disodium salt, read-out: ED50

Structure (SMILES): O=C(Cc1cccs1)N[C@@H]1C(=O)N2C(C(=O)[O-])=C(C[n+]3ccccc3)CS[C@H]12 [Cephaloridine]
- LD50 [1]: 3840 mg/kg

Structure (SMILES): O=C(O)Cc1nnc(SCC2=C(C(=O)O)N3C(=O)C(NC(=O)Cc4cccs4)[C@H]3SC2)[nH]1 (some centres unmarked) [Example 1, 7-(2-thienylacetamido)-3-(5-carboxymethyl-1,3,4-triazol-2-yl)thiomethyl-3-cephem-4-carboxylic acid]
- MIC [2]: 6.25 µg/mL (≈ 12.6 µM)
- LD50 [1, 12]: 6300 mg/kg
- ED50 [3]: 52 mg/kg
- ED50 [4, 13]: 27 mg/kg
- ED50 ([5]; SMITHS424, Staphylococcus aureus Smith S-424, intravenous, mice, Example 1 as dipotassium salt, read-out: ED50): 8.5 mg/kg
- MIC [6]: 3.13 µg/mL (≈ 6.32 µM)
- MIC [7]: 0.78 µg/mL (≈ 1.57 µM)
- ED50 [8, 14]: 7.3 mg/kg

Structure (SMILES): O=C(O)CCc1nnc(SCC2=C(C(=O)O)N3C(=O)C(NC(=O)Cc4cccs4)[C@H]3SC2)[nH]1 (some centres unmarked) [Example 2, 7-(2-thienylacetamido)-3-[5-(2-carboxyethyl)-1,3,4-triazol-2-yl]thiomethyl-3-cephem-4-carboxylic acid]
- MIC [2]: 6.25 µg/mL (≈ 12.3 µM)
- MIC [6]: 0.2 µg/mL (≈ 0.392 µM)
- MIC [7]: 0.78 µg/mL (≈ 1.53 µM)

Structure (SMILES): Cn1c(CCC(=O)O)nnc1SCC1=C(C(=O)O)N2C(=O)C(NC(=O)Cc3cccs3)[C@H]2SC1 (some centres unmarked) [Example 3, 7-(2-thienylacetamido)-3-[5-(2-carboxyethyl)-1-methyl-1,3,4-triazol-2-yl]thiomethyl-3-cephem-4-carboxylic acid]
- MIC [2]: 1.56 µg/mL (≈ 2.98 µM)
- MIC [6]: 0.78 µg/mL (≈ 1.49 µM)
- MIC [7]: 0.78 µg/mL (≈ 1.49 µM)

Structure (SMILES): O=C(O)CCc1nnc(SCC2=C(C(=O)O)N3C(=O)C(NC(=O)Cc4cccs4)[C@H]3SC2)n1-c1ccccc1 (some centres unmarked) [Example 4, 7-(2-thienylacetamido)-3-[5-(2-carboxyethyl)-1-phenyl-1,3,4-triazol-2-yl]thiomethyl-3-cephem-4-carboxylic acid]
- MIC [2]: 25 µg/mL (≈ 42.7 µM)
- MIC [6]: 1.56 µg/mL (≈ 2.66 µM)
- MIC [7]: 25 µg/mL (≈ 42.7 µM)

Structure (SMILES): Cn1c(CC(=O)O)nnc1SCC1=C(C(=O)O)N2C(=O)C(NC(=O)Cc3cccs3)[C@H]2SC1 (some centres unmarked) [Example 5, 7-(2-thienylacetamido)-3-(5-carboxymethyl-1-methyl-1,3,4-triazol-2-yl)-thiomethyl-3-cephem-4-carboxylic acid]
- MIC [2]: 3.13 µg/mL (≈ 6.14 µM)
- MIC [6]: 0.2 µg/mL (≈ 0.392 µM)
- MIC [7]: 0.78 µg/mL (≈ 1.53 µM)

Structure (SMILES): O=C(Cc1cccs1)NC1C(=O)N2C(C(=O)O)=C(CSc3nnc(C(=O)O)[nH]3)CS[C@H]12 (some centres unmarked) [Example 6, 7-(2-thienylacetamido)-3-(5-carboxy-1,3,4-triazol-2-yl)thiomethyl-3-cephem-4-carboxylic acid]
- MIC [2]: 6.25 µg/mL (≈ 13 µM)
- MIC [6]: 0.2 µg/mL (≈ 0.415 µM)
- MIC [7]: 3.13 µg/mL (≈ 6.5 µM)

Structure (SMILES): Cn1c(SCC2=C(C(=O)O)N3C(=O)C(NC(=O)Cc4cccs4)C3SC2)nnc1C(=O)O (centres unmarked) [Example 7, 7-(2-thienylacetamido)-3-(5-carboxy-1-methyl-1,3,4-triazol-5-yl)-thiomethyl-3-cephem-4-carboxylic acid]
- MIC [2]: 1.56 µg/mL (≈ 3.15 µM)
- MIC [6]: 0.39 µg/mL (≈ 0.787 µM)
- MIC [7]: 0.78 µg/mL (≈ 1.57 µM)

Structure (SMILES): O=C(Cc1cccs1)NC1C(=O)N2C(C(=O)O)=C(CSc3nnc(C(=O)O)n3-c3ccccc3)CSC12 (centres unmarked) [Example 8, 7-(2-thienylacetamido)-3-(5-carboxy-1-phenyl-1,3,4-triazol-5-yl)thiomethyl-3-cephem-4-carboxylic acid]
- MIC [2]: 25 µg/mL (≈ 44.8 µM)
- MIC [6]: 0.78 µg/mL (≈ 1.4 µM)
- MIC [7]: 12.5 µg/mL (≈ 22.4 µM)

Structure (SMILES): Cn1cnnc1SCC1=C(C(=O)O)N2C(=O)C(NC(=O)Cc3cccs3)C2SC1 (centres unmarked) [Example 22, 7-(2-thienylacetamide)-3-(1-methyl-1,3,4-triazol-5-yl)thiomethyl-3-cephem-4-carboxylic acid]
- MIC [2]: 6.25 µg/mL (≈ 13.8 µM)
- MIC [9]: 0.78 µg/mL (≈ 1.73 µM)
- MIC [10]: 0.78 µg/mL (≈ 1.73 µM)
- MIC [6]: 50 µg/mL (≈ 111 µM)
- MIC [7]: 1.56 µg/mL (≈ 3.45 µM)
- MIC [11]: 1.56 µg/mL (≈ 3.45 µM)

Structure (SMILES): CC(=O)OCC1=C(C(=O)O)N2C(=O)[C@@H](NC(=O)Cc3cccs3)[C@H]2SC1 [Sodium Cephalotin, 7-(2-thienylacetamido)cephalosporanic acid, reference compound]
- MIC [2]: 6.25 µg/mL
- LD50 [1, 12]: 5180 mg/kg
- ED50 [3]: 200 mg/kg
- ED50 ([4]; ENTERITIDIS, iv): 480 mg/kg
- ED50 ([5]; Staphylococcus aureus, SMITHS424, iv): 19 mg/kg
- MIC [6]: 2.5 µg/mL
- MIC [7]: 3.13 µg/mL
- ED50 ([8]; Proteus vulgaris, C739, iv): 14 mg/kg

Structure (SMILES): Cc1nnc(SCC2=C(C(=O)O)N3C(=O)[C@@H](NC(=O)Cn4cnnn4)[C@H]3SC2)s1 [Sodium Cephazoline]
- LD50 [1, 12]: 3130 mg/kg
- ED50 [4, 13]: 130 mg/kg
- ED50 [8, 14]: 18.5 mg/kg
